In patent US10392348B2, “2-oxo-3,4-dihydroquinoline compounds as plant growth regulators” (Syngenta Participations AG, priority 2015, dated 2019):
Read-outs that look alike come from different tables or passages of the source.

How the values were obtained:
[1] = tested on: soybean plants (variety S20-G7); experiment: Reduced plant water use in soybean (foliar spray, repeated weighing of pots); format: in vivo; details: Glycine max, foliar, Table B1, sprayed at 500 μM, vs negative control
Method in brief: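 Compounds in blank EC formulation diluted in water with EXTRAVON 1 g/20 L, foliar-sprayed on 12-day-old soybean in growth chambers. Water use from repeated pot weighing at a.m./p.m. periods over 0-2 DAA, summed to cumulative 0-2.5 DAA; ANCOVA with pre-application baseline covariate, relative to blank-formulation control.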

[2] = 0 h, 0 DAA a.m. (10:30-12:50), read-out: % WU 0 DAA AM
[3] = 24 h, 1 DAA a.m. (7:30-12:50), read-out: % WU 1DAA AM
[4] = 24 h, 1 DAA p.m. (14:00-19:50), read-out: % WU 1DAA PM
[5] = 48 h, 2 DAA a.m. (07:30-12:50), read-out: % WU 2 DAA AM
[6] = 48 h, 2 DAA p.m. (14:00-19:50), read-out: % WU 2 DAA PM
[7] = 60 h, cumulative total WU (0-2.5 DAA), read-out: % WU Total 0 to 2.5 DAA

Compound	melting point	change in vivo at 500 µM [1, 2]	change in vivo at 500 µM [1, 3]	change in vivo at 500 µM [1, 4]	change in vivo at 500 µM [1, 5]	change in vivo at 500 µM [1, 6]	change in vivo at 500 µM [1, 7]
CCCN1C(=O)CCc2cc(CNS(=O)(=O)c3ccccc3C)ccc21 [Compound 3.011, 2-methyl-N-[(2-oxo-1-propyl-3,4-dihydroquinolin-6-yl)methyl]benzenesulfonamide]	163 to 165 °C	-3.6%	-3.6%	-2.3%	-3.6%	-2.4%	-3%
CCCN1C(=O)CCc2cc(CNS(=O)(=O)c3ccc(C)cc3)ccc21 [Compound 3.012, 4-methyl-N-[(2-oxo-1-propyl-3,4-dihydroquinolin-6-yl)methyl]benzenesulfonamide]	153 to 154 °C	-43.9%	-1.8%	2.1%	1.7%	3%	-5.8%
CCCN1C(=O)CCc2cc(CNS(=O)(=O)c3ccc(OC(C)C)cc3)ccc21 [Compound 3.016, 4-isopropoxy-N-[(2-oxo-1-propyl-3,4-dihydroquinolin-6-yl)methyl]benzenesulfonamide]	138 to 139 °C	-3.6%	-1.3%	-0.5%	-1.1%	0%	-1.2%

Second part, led by results:

melting point	Compound	change in vivo at 500 µM [1, 2]	change in vivo at 500 µM [1, 3]	change in vivo at 500 µM [1, 4]	change in vivo at 500 µM [1, 5]	change in vivo at 500 µM [1, 6]	change in vivo at 500 µM [1, 7]
151 to 153 °C	CCCN1C(=O)CCc2cc(CNS(=O)(=O)c3cccs3)ccc21 [Compound 3.072, N-[(2-oxo-1-propyl-3,4-dihydroquinolin-6-yl)methyl]thiophene-2-sulfonamide]	-39.4%	-45.9%	-40.9%	-39.8%	-32.2%	-40.1%
144 to 147 °C	CCCN1C(=O)CCc2cc(CNS(=O)(=O)c3ccc(Cl)s3)ccc21 [Compound 3.073, 5-chloro-N-[(2-oxo-1-propyl-3,4-dihydroquinolin-6-yl)methyl]thiophene-2-sulfonamide]	-44.6%	-54.9%	-52.1%	-53.3%	-48.7%	-51%
176 to 179 °C	CCCN1C(=O)CCc2cc(CNS(=O)(=O)c3cccc4ccccc34)ccc21 [Compound 3.074, N-[(2-oxo-1-propyl-3,4-dihydroquinolin-6-yl)methyl]naphthalene-1-sulfonamide]	-8.6%	0%	1%	-1.5%	0%	-1.4%
204 to 206 °C	CCCn1c(=O)ccc2cc(CNS(=O)(=O)c3ccccc3)ccc21 [Compound 7.001, N-[(2-oxo-1-propyl-6-quinolyl)methyl]benzenesulfonamide]	-17.1%	-9.1%	-6.9%	-6.9%	-2.5%	-8.8%
